According to ChEMBL document CHEMBL1156829 (Proc Natl Acad Sci U S A, 2008):

Columns and labels:
[1] = NOVARTIS: Cytotoxicity against human hepatocellular carcinoma cell line (Huh7); format: toxicity, cell-based, Huh-7; settings: Huh7 cells (hepatocellular carcinoma cell line)
Plasmodium falciparum [2] = assay: NOVARTIS: Inhibition of Plasmodium falciparum W2 (drug-resistant) proliferation in erythrocyte-based infection assay; format: functional, organism-based; settings: Plasmodium falciparum, W2; read-out: EC50
Plasmodium falciparum [3] = assay: NOVARTIS: Inhibition of Plasmodium falciparum 3D7 (drug-susceptible) proliferation in erythrocyte-based infection assay; format: functional, organism-based; settings: Plasmodium falciparum, 3D7

SMILES | CC50 [1] | EC50 (Plasmodium falciparum [2]) | EC50 (Plasmodium falciparum [3])
O=C1/C(=N\c2cccc(O)c2)C(N2CCCCC2)=C(O)c2ccccc21 | > 100000 nM | 227 nM | 212 nM
CN(C)c1ccc2c(c1)Sc1cc(N(C)C)ccc1N2C(=O)c1ccccc1 | > 100000 nM | 232 nM | 218 nM
CC(=O)OCC(=O)[C@@]1(O)CCC2C3CCC4=CC(=O)CC[C@]4(C)C3[C@@H](O)C[C@@]21C (some centres not stated) | > 10000 nM | < 23 nM | > 1250 nM
Cc1nn(CC(O)Cn2c3ccc(Br)cc3c3cc(Br)ccc32)c(C)c1Br (configuration not stated) | 75200 nM | 177 nM | 769 nM
CS(=O)(=O)N1CCCCC1C(=O)NCc1ccc(OC2CCN(CC(c3ccccc3)c3ccccc3)CC2)cc1 (configuration not stated) | > 10000 nM | 22.9 nM | 1020 nM
c1ccc2cc3c(N4CCN(CCN5CCN(c6ccnc7cc8ccccc8cc67)CC5)CC4)ccnc3cc2c1 | > 100000 nM | 228 nM | 176 nM
CSc1nc2nc(C)c(Cc3cccc(C(F)(F)F)c3)c(C)n2n1 | > 100000 nM | 224 nM | 270 nM
CSc1ccc(C=CC(=O)NC(=O)c2ccccc2O)cc1 | > 100000 nM | 225 nM | 243 nM
Clc1ccc(-c2c[n+](-c3ccccc3)c3n2CCS3)cc1 | > 100000 nM | 236 nM | 308 nM
Cc1ccc(NC(=O)N(CCCN(C)C)Cc2cc3cc4c(cc3[nH]c2=O)OCO4)cc1 | > 100000 nM | 236 nM | 1300 nM
Cc1cc(NCCc2ccccc2)nc2cc(O)ccc12 | 29500 nM | 69.5 nM | 377 nM
CCc1c(C)c(C#N)c2nc3ccccc3n2c1Nc1ccc(C)c(Cl)c1 | > 100000 nM | 233 nM | 1090 nM
CC(=O)c1ccc(N2CCN(Cc3cc(-c4ccnc5cc(Cl)ccc45)ccc3O)CC2)cc1 | > 100000 nM | 228 nM | 2810 nM
CCc1cc2c3c(c1)C1(C(=O)N3C(C)(C)CC2C)C(C#N)=C(N)Oc2cc(C)oc(=O)c21 (configuration not stated) | > 100000 nM | 228 nM | 1470 nM
C=CCSc1nc2sc3c(c2c(=O)n1-c1ccccc1)CCN(C)C3 | > 100000 nM | 228 nM | 632 nM
O=C(c1cc2cc(Br)ccc2o1)N1CCc2c([nH]c3ccccc23)C1c1ccc(Cl)cc1 (configuration not stated) | > 100000 nM | 226 nM | 887 nM
CCOC(=O)C1=C(C)NC2=C(C(=O)C(C(=O)OCC)C(c3ccc(OC)cc3)C2)C1c1ccc(OC)c(OC)c1 (configuration not stated) | > 76600 nM | 178 nM | 275 nM
CC1CN(C(=O)c2sc3cccc(F)c3c2Cl)CC(C)O1 (configuration not stated) | > 100000 nM | 232 nM | 299 nM
CN1CCN(c2ccc(Nc3ccnc4cc(Cl)ccc34)cc2Cl)CC1 | > 23700 nM | 54.7 nM | 35.8 nM
Cc1ccc(S(=O)(=O)NCCCCNc2ccnc3cc(Cl)ccc23)cc1 | > 9020 nM | < 20.4 nM | 575 nM
O=C(Nc1ccc(-c2ccc(Cl)cc2)cc1)c1cccs1 | > 100000 nM | 225 nM | 285 nM
OCC1CCCCN1Cc1cc(-c2ccccc2)ccc1O (configuration not stated) | > 10000 nM | < 23.2 nM | 1030 nM
COc1ccc(OC)c(-c2ccc(O)c(CNCCc3ccc(F)cc3)c2)c1 | > 10000 nM | < 23.2 nM | 1050 nM
C[n+]1ccccc1C=Cc1ccc(Br)cc1 | 95200 nM | 221 nM | 352 nM
COc1cccc(-c2ccc(O)c(CN3CCC(Cc4ccccc4)CC3)c2)n1 | 38400 nM | 86.1 nM | 306 nM
O=C(Cc1ccsc1)N1CCOc2c(cc(-c3csc4ccccc34)cc2OCCc2ccccn2)C1 | > 100000 nM | 223 nM | 379 nM
c1cncc(CCNc2nccn3c(-c4ccc5ccccc5c4)cnc23)c1 | 34400 nM | 81.2 nM | 115 nM

SMILES | CC50 [1] | EC50 (Plasmodium falciparum [2]) | EC50 (Plasmodium falciparum [3])
CCOC(=O)c1nnn(-c2nonc2N)c1-c1ccc(Br)cc1 | > 100000 nM | 230 nM | 287 nM
CCOc1ccccc1-n1c(N)c(C(=O)Nc2ccc(F)cc2)sc1=S | > 100000 nM | 230 nM | 968 nM
COc1ccc2nc3cc(Cl)ccc3c(NCCCN(CCCN)CCCCN)c2c1 | > 10000 nM | 22.3 nM | 78.6 nM
CC1CNC(c2ccc(NC(=O)c3ccc(C(=O)Nc4ccc(C5=NC(C)CN5)cc4)c(N)c3)cc2)=N1 (configuration not stated) | > 10000 nM | 22.2 nM | 47 nM
Brc1ccc(C=Cc2cc[n+](Cc3ccccc3)cc2)cc1 | 47300 nM | 103 nM | 139 nM
O=[N+]([O-])c1cc(C(F)(F)F)ccc1N1CCCN(C(=S)Nc2cccc(C(F)(F)F)c2)CC1 | 55000 nM | 130 nM | 149 nM
CCCCCCn1c(=O)c(C(=O)NCC[N+](CC)(CC)CC)c(O)c2ccccc21 | > 100000 nM | 236 nM | 506 nM
CCOC(=O)C1=C(C)NC2=C(C(=O)C(C(=O)OCC)C(c3ccccc3OC)C2)C1c1sccc1C (configuration not stated) | > 100000 nM | 235 nM | 984 nM
Oc1ccc(-c2ccccc2)cc1CNC1CCCCC1 | > 10000 nM | < 23.5 nM | 982 nM
COc1cc(-c2nc(-c3ccc(C)c(C)c3)c(-c3ccc(C)c(C)c3)[nH]2)cc(OC)c1O | 61200 nM | 132 nM | 93 nM
CCc1nc2nc(C)cc(Nc3ccc4c(c3)OCCO4)n2n1 | > 100000 nM | 219 nM | 360 nM
COc1cccc(C(NC(=O)c2ccccc2)c2ccc3cccnc3c2O)c1 (configuration not stated) | > 100000 nM | 216 nM | 134 nM
CCOc1ccc(-c2c[n+](-c3ccccc3)c3n2CCS3)cc1 | > 100000 nM | 228 nM | 421 nM
Cc1onc(-c2ccccc2)c1C(=O)N1CCC(CNc2c(-c3ccoc3)nc3ccccn23)CC1 | 96600 nM | 225 nM | 1760 nM
OCc1nc2ccccc2n1CCOc1ccccc1 | > 10000 nM | 23.3 nM | > 1250 nM
Cc1ccn2c(NC(C)(C)CC(C)(C)C)c(-c3ccccc3OC(=O)Cc3ccccc3)nc2c1 | > 10000 nM | 21.6 nM | 926 nM
Cc1nc2c(c(C)nn2C)c(C)c1CCC(=O)N1CCCC1 | > 6850 nM | < 15.8 nM | 360 nM
COc1cc2c(cc1OC)C1=NC(=O)C(C(C)C)N1C(SCc1csc(Cl)n1)=N2 (configuration not stated) | 14300 nM | 31.6 nM | > 1420 nM
O=C(NC1CC1)c1ccc(OC2CCN(CC3CCCCC3)CC2)c(Cl)c1 | 22600 nM | 50.3 nM | 119 nM
CCCc1nc2ccc(NC(=O)c3ccccc3F)cc2c(=O)n1Cc1ccc(-c2ccccc2)cc1 | > 100000 nM | 217 nM | 1080 nM
CCSc1ccc2ccccc2[n+]1CC | > 100000 nM | 227 nM | 179 nM
Oc1ccc(-c2cccnc2)cc1CNCC1CC2C=CC1C21CC1 (configuration not stated) | > 10000 nM | < 23.3 nM | 835 nM
COC(=O)CC(NS(=O)(=O)c1ccc(OC)cc1)c1ccc2c(c1)OCO2 (configuration not stated) | > 10300 nM | < 23.4 nM | 1460 nM
Oc1ccc(-c2ccc3c(c2)OCO3)cc1CNC12CC3CC(CC(C3)C1)C2 | > 100000 nM | 225 nM | 832 nM
COc1ccc2c(c1OC)C(=O)N1c3ccccc3N=C(c3ccc(I)cc3)CC21 (configuration not stated) | > 100000 nM | 223 nM | 416 nM
Cc1nc(N(C)c2ccc(C(C)C)cc2)c2c(C)c(C(=O)Nc3cc(C)on3)sc2n1 | > 100000 nM | 236 nM | 248 nM
Cc1ccc(N(C)C(=O)CCNS(=O)(=O)c2cc(Br)cnc2N)cc1 | > 100000 nM | 224 nM | 1920 nM
